{"source": "patent US6410575B1", "about": "“Viral treatment” (The Procter & Gamble Company, priority 1999, dated 2002)", "key": {"hepatitis B": {"test_system": "hepatitis B", "assay": "In vitro virus production test of hepatitis B, HEPG2 2.2.15", "format": "cell-based", "conditions": "for IC50: Hepatitis B virus, HepG2 2.2.15, hepatitis B, read-out: IC50"}, "[1]": {"test_system": "HIV-1 cell line, U937IIIB", "assay": "Long term in vitro study, U937IIIB", "format": "cell-based", "experimental": "Toxicity quantification involves the XTT-based evaluation. Assays were designed to characterize the long term effects of the compounds on virus production and to characterize the longer term effects of the compounds on virus production from chronically HIV infected cells.\nCEM-SS cells chronically infected with HIV isolate, for example SKI (CEM-SKI) are cultured in RPMI1640 tissue culture medium supplemented with 10% fetal bovine serum and antibiotics. […] CEM-SKI or other infected cells with no added drug are used as the control cells.\nCells are allowed to grow to a density of approximately 1×10^6 cells/ml and are then passaged at a 1:10 dilution. […] The drug concentration in the flask is then increased two-fold and the cells maintained as above.\nThe cell populations contain integrated copies of the HIV genome and constitutively produce HIV at relatively high levels or are latently infected and only produce virus after stimulation with phorbol esters, tumor necrosis factor or IL6(U1 and ACH2). Reductions in virus products were observed when quantifying supernatant reverse transcriptase activity.\nThe results with U937IIIB cells were reported at weekly intervals.\nThe U937IIIB cell line is viral strain of the U937 cell line."}}, "note": "Values joined by “and” are separate entries in the source; they are usually repeats but may differ in a detail not shown here. Identical values can stand only once. Like-named read-outs stand apart in the source and are kept apart here.", "data": [{"compound": "NC(=S)Nc1nsc(-c2ccccc2)n1", "values": [{"measurement": "% virus control", "setting": "hepatitis B; 0.64 μg/ml", "value": 55.1, "unit": "%"}, {"measurement": "DNA Copy Number (per 3 μl), mean", "setting": "hepatitis B; 0.64 μg/ml", "value": 145.8, "unit": "per 3 μl"}, {"measurement": "DNA Copy Number (per 3 μl), sample", "setting": "hepatitis B; 0.64 μg/ml", "value": "131.5 per 3 μl and 155.2 per 3 μl and 150.8 per 3 μl"}, {"measurement": "% virus control", "setting": "hepatitis B; 2 μg/ml", "value": 31.9, "unit": "%"}, {"measurement": "DNA Copy Number (per 3 μl), mean", "setting": "hepatitis B; 2 μg/ml", "value": 84.3, "unit": "per 3 μl"}, {"measurement": "% virus control", "setting": "hepatitis B; 6.4 μg/ml", "value": 36.1, "unit": "%"}, {"measurement": "DNA Copy Number (per 3 μl), mean", "setting": "hepatitis B; 6.4 μg/ml", "value": 95.4, "unit": "per 3 μl"}, {"measurement": "% virus control", "setting": "hepatitis B; 20 μg/ml", "value": 15.8, "unit": "%"}, {"measurement": "DNA Copy Number (per 3 μl), mean", "setting": "hepatitis B; 20 μg/ml", "value": 41.9, "unit": "per 3 μl"}, {"measurement": "% virus control", "setting": "hepatitis B; 64 μg/ml", "value": 33.1, "unit": "%"}, {"measurement": "DNA Copy Number (per 3 μl), mean", "setting": "hepatitis B; 64 μg/ml", "value": 87.5, "unit": "per 3 μl"}, {"measurement": "DNA Copy Number (per 3 μl), sample", "setting": "hepatitis B; 64 μg/ml", "value": "98.6 per 3 μl and 76.0 per 3 μl and 87.8 per 3 μl"}, {"measurement": "% virus control", "setting": "hepatitis B; 200 μg/ml", "value": 22.7, "unit": "%"}, {"measurement": "DNA Copy Number (per 3 μl), mean", "setting": "hepatitis B; 200 μg/ml", "value": 60.0, "unit": "per 3 μl"}, {"measurement": "IC50", "setting": "hepatitis B; HEPG2 2.2.15, replicate experiment", "value": 0.76, "unit": "mg/L"}, {"measurement": "IC50", "setting": "hepatitis B; HEPG2 2.2.15", "value": 0.94, "unit": "mg/L"}, {"measurement": "therapeutic index or TI", "setting": "hepatitis B; hepatitis B, HEPG2 2.2.15", "value": 212.8}, {"measurement": "TI", "setting": "hepatitis B; hepatitis B, HEPG2 2.2.15, replicate experiment", "value": 263.2}, {"measurement": "virus production (supernatant reverse transcriptase activity)", "setting": "[1]; 7 μg/ml, day 4", "value": 9368}, {"measurement": "virus production (supernatant reverse transcriptase activity)", "setting": "[1]; 7 μg/ml, day 11", "value": 8889}, {"measurement": "virus production (supernatant reverse transcriptase activity)", "setting": "[1]; 7 μg/ml, day 18", "value": 7566}, {"measurement": "virus production (supernatant reverse transcriptase activity)", "setting": "[1]; 7 μg/ml, day 25", "value": 5781}, {"measurement": "virus production (supernatant reverse transcriptase activity)", "setting": "[1]; 7 μg/ml, day 32", "value": 3414}, {"measurement": "virus production (supernatant reverse transcriptase activity)", "setting": "[1]; 7 μg/ml, day 39", "value": 5346}, {"measurement": "virus production (supernatant reverse transcriptase activity)", "setting": "[1]; 7 μg/ml, day 46", "value": 4085}, {"measurement": "virus production (supernatant reverse transcriptase activity)", "setting": "[1]; 7 μg/ml, day 53", "value": 4832}, {"measurement": "virus production (supernatant reverse transcriptase activity)", "setting": "[1]; 15 μg/ml, day 4", "value": 9710}, {"measurement": "virus production (supernatant reverse transcriptase activity)", "setting": "[1]; 15 μg/ml, day 11", "value": 8025}, {"measurement": "virus production (supernatant reverse transcriptase activity)", "setting": "[1]; 15 μg/ml, day 18", "value": 5435}, {"measurement": "virus production (supernatant reverse transcriptase activity)", "setting": "[1]; 15 μg/ml, day 25", "value": 6064}, {"measurement": "virus production (supernatant reverse transcriptase activity)", "setting": "[1]; 15 μg/ml, day 32", "value": 2479}, {"measurement": "virus production (supernatant reverse transcriptase activity)", "setting": "[1]; 15 μg/ml, day 39", "value": 4377}, {"measurement": "virus production (supernatant reverse transcriptase activity)", "setting": "[1]; 15 μg/ml, day 46", "value": 3867}, {"measurement": "virus production (supernatant reverse transcriptase activity)", "setting": "[1]; 15 μg/ml, day 53", "value": 3510}, {"measurement": "virus production (supernatant reverse transcriptase activity)", "setting": "[1]; 30 μg/ml, day 4", "value": 9549}, {"measurement": "virus production (supernatant reverse transcriptase activity)", "setting": "[1]; 30 μg/ml, day 11", "value": 7639}, {"measurement": "virus production (supernatant reverse transcriptase activity)", "setting": "[1]; 30 μg/ml, day 18", "value": 3551}, {"measurement": "virus production (supernatant reverse transcriptase activity)", "setting": "[1]; 30 μg/ml, day 25", "value": 4611}, {"measurement": "virus production (supernatant reverse transcriptase activity)", "setting": "[1]; 30 μg/ml, day 32", "value": 1855}, {"measurement": "virus production (supernatant reverse transcriptase activity)", "setting": "[1]; 30 μg/ml, day 39", "value": 2410}, {"measurement": "virus production (supernatant reverse transcriptase activity)", "setting": "[1]; 30 μg/ml, day 46", "value": 1550}, {"measurement": "virus production (supernatant reverse transcriptase activity)", "setting": "[1]; 30 μg/ml, day 53", "value": 1819}]}]}
